Twelve molecules from ChEMBL document CHEMBL1134191, “Pharmacophore-based discovery, synthesis, and biological evaluation of 4-phenyl-1-arylalkyl piperidines as dopamine transporter inhibitors” (Bioorg Med Chem Lett, 2001) can be followed below.

The species entered for experiment [1] is Rattus norvegicus. Nature of the experiment: Inhibition of [3H]-dopamine uptake into striatal membrane preparations. The class given is functional, Striatum.
The species named for experiment [2] is Rattus norvegicus. The experiment is described as follows: Inhibition of [3H]dopamine uptake by striatal membrane preparations. The experiment is classed as functional, Striatum.
Experiment [3] is filed under the species Rattus norvegicus. The experiment is described as follows: Inhibitory concentration for [3H]dopamine uptake by striatal membrane preparations in presence of 20 nM compound 43. The class given is functional. Particulars: Striatum.
The species entered for experiment [4] is Rattus norvegicus. The experiment is described as follows: Inhibitory concentration for [3H]-dopamine uptake by striatal membrane preparations in presence of 1000 nM compound 5. The experiment is classed as functional. The following applies: Striatum.
For experiment [5], the species on record is Rattus norvegicus. Nature of the experiment: Inhibitory concentration for [3H]-dopamine uptake by striatal membrane preparations in presence of 50 nM compound 43. The class given is functional. Particulars: Striatum.
Experiment [6] is filed under the species Rattus norvegicus. Nature of the experiment: Inhibitory concentration for [3H]dopamine uptake by striatal membrane preparations in presence of 500 nM compound 5. The experiment is classed as functional. Particulars: Striatum.

Consider `Fc1ccc(CCN2CCC(c3ccc(F)cc3)CC2)cc1`, for which, in the experiment listed under Rattus norvegicus [1], the inhibition constant Ki (as a rule, the equilibrium dissociation constant of an inhibitor or competing ligand from its target) came out at 1360 nM. Consider `Fc1ccc(OCCN2CCC(c3ccccc3)CC2)cc1`, for which the inhibitory constant (Ki) in the experiment filed under Rattus norvegicus [1] worked out at 2720 nM. Against the preceding molecule, the Ki is about 2-fold higher.

`Fc1ccc(CCCCN2CCC(c3ccc(F)cc3)CC2)cc1` yielded a Ki in the experiment filed under Rattus norvegicus [1] of 2540 nM.

Regarding `O=C(CN1CCC(c2ccc(F)cc2)CC1)c1ccc(F)cc1`, in the experiment listed under Rattus norvegicus [1], the Ki is 4330 nM. This Ki lies about 1.7-fold higher than the previous one. With `O=C(CCCN1CCC(c2ccc(F)cc2)CC1)c1ccc(F)cc1`, in the experiment filed under Rattus norvegicus [1], the affinity corresponds to a Ki of 3170 nM. The molecule `O=C(CCN1CCC(c2ccccc2)CC1)c1ccc(F)cc1` displayed a Ki in the experiment listed under Rattus norvegicus [1] of 1560 nM. With `OC1(c2ccccc2)CCN(CCOc2ccc(F)cc2)CC1`, the Ki in the experiment filed under Rattus norvegicus [1] turned out to be 17600 nM. Regarding `Fc1ccc(OCCN2CCC(c3ccc(F)cc3)CC2)cc1`, in the experiment listed under Rattus norvegicus [2], affinity was put at a Ki of 840 nM. For `Fc1ccc(CN2CCC(c3ccc(F)cc3)CC2)cc1`, the Ki in the experiment listed under Rattus norvegicus [1] is > 10000 nM. Regarding `Clc1ccc(OCCN2CCC(c3ccc(Cl)cc3)CC2)cc1`, the affinity in the experiment filed under Rattus norvegicus [1], expressed as Ki, was 90 nM. With `COC(=O)[C@H]1[C@@H](OC(=O)c2ccccc2)C[C@@H]2CC[C@H]1N2C` [COCAINE], the 50% inhibitory concentration (IC50) (as a rule, the concentration that gives 50% inhibition) in the experiment listed under Rattus norvegicus [3] amounted to 490 nM; in the experiment listed under Rattus norvegicus [4] it was 686 nM; in the experiment filed under Rattus norvegicus [5], 696 nM; in the experiment listed under Rattus norvegicus [6] it was 538 nM.

`O=C(CCN1CCC(c2ccc(F)cc2)CC1)c1ccc(F)cc1` had a Ki in the experiment filed under Rattus norvegicus [1] of 2670 nM.
